Experimental data as given in ChEMBL document CHEMBL1909046, “DrugMatrix in vitro pharmacology data”.
pIC50, pKi: −log10 of the molar value.

Key:
[1] = biological target: T1, Polyunsaturated fatty acid lipoxygenase ALOX15 (Oryctolagus cuniculus, UniProt P12530); assay: biochemical; format: tissue-based, Reticulocytes; conditions: for IC50 / Ki: reticulocytes;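 on all read-outs here: inhibition of 15-lipoxygenase enzyme activity measured with linoleic acid as the substrate; in other assays of this panel Not Active means under 50% inhibition at 10 µM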
T1 sequence (P12530 whole entry): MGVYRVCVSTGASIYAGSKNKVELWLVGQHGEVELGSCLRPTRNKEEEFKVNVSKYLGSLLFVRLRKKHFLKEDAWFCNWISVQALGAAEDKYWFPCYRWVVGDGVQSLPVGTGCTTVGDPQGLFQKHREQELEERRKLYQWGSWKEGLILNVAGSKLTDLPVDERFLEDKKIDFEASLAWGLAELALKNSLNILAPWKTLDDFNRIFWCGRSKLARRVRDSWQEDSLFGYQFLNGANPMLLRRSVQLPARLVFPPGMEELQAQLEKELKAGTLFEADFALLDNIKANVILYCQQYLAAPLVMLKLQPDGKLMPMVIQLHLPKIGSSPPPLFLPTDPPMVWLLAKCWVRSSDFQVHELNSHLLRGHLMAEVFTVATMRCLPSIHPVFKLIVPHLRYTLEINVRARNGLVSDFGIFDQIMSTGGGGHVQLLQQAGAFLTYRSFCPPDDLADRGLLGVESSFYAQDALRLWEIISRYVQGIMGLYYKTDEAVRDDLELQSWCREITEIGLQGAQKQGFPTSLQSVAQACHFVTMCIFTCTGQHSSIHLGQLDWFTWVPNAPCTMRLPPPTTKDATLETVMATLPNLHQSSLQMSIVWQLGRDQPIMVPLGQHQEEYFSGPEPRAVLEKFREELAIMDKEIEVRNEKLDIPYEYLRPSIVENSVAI

Androgen receptor = biological target: T2, Androgen receptor (Rattus norvegicus, UniProt P15207); further: in other assays of this panel Not Active means under 50% inhibition at 10 µM
T2 sequence (P15207 whole entry): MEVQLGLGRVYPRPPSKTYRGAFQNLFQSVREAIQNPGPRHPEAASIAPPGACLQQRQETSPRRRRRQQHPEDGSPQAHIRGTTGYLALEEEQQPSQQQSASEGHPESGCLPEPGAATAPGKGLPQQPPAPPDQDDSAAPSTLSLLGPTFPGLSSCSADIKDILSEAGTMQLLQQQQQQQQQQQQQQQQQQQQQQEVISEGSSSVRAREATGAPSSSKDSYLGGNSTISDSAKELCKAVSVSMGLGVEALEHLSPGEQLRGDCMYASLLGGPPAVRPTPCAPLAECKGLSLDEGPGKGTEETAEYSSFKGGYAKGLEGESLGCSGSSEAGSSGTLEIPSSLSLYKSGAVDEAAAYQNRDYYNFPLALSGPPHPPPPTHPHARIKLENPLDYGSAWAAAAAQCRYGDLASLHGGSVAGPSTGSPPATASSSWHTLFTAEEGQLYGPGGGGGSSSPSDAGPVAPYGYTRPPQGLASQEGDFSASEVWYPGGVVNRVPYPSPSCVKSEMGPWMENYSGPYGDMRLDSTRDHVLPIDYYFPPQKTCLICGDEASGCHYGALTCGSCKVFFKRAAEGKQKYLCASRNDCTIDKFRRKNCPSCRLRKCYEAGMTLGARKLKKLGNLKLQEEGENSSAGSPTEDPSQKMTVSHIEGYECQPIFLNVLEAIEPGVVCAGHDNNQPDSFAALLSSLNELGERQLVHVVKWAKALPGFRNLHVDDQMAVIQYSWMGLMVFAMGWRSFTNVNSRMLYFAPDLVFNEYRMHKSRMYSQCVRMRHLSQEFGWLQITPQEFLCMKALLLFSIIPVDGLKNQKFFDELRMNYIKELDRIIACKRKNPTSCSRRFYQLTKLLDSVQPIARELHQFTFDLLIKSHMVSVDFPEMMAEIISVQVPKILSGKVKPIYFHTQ

[2] = DRUGMATRIX: Serotonin (5-Hydroxytryptamine) 5-HT3 radioligand binding (ligand: [3H] GR-65630); format: cell membranes, Membrane; conditions: hek293; Not Active = under 50% inhibition at 10 µM
Adenosine receptor A2a = Adenosine receptor A2a (Homo sapiens, UniProt P29274); assay: DRUGMATRIX: Adenosine A2A radioligand binding (ligand: […]); format: cell membranes, HEK293, Membrane; conditions: Not Active = under 50% inhibition at 10 µM; for IC50 / Ki: hek293
Adenosine receptor A2a, sequence (P29274 whole entry): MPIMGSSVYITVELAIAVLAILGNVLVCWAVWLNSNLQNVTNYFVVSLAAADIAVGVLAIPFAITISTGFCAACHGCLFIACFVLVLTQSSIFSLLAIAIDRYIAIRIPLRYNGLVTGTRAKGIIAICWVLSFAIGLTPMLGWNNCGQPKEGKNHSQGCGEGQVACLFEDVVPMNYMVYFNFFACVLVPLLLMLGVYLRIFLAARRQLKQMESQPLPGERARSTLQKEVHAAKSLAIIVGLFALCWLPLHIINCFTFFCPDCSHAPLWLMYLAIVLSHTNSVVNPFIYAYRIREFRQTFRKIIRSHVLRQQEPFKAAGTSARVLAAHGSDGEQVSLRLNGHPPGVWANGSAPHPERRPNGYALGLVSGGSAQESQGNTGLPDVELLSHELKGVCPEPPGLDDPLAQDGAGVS

Interstitial collagenase = biological target: T3, Interstitial collagenase (Homo sapiens, UniProt P03956); assay: biochemical; format: tissue-based, Rheumatoid synovial fibroblasts;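 further: MMP-1 enzyme inhibition assay using a peptide substrate; in other assays of this panel Not Active means under 50% inhibition at 10 µM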
T3 sequence (P03956 whole entry): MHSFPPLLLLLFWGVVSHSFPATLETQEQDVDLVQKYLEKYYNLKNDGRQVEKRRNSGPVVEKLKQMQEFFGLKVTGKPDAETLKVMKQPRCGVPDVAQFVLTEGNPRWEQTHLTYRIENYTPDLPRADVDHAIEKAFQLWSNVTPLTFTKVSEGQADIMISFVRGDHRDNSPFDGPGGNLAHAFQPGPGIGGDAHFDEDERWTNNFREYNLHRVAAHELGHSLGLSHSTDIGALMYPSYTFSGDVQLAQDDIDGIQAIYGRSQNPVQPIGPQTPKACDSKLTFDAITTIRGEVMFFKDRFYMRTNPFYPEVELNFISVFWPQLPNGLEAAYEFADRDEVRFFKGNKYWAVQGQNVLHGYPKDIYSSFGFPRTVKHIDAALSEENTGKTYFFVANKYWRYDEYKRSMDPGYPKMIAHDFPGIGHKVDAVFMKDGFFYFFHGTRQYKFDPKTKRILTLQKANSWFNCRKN

[3] = biological target: Epidermal growth factor receptor (Homo sapiens, UniProt P00533); assay: DRUGMATRIX: Protein Tyrosine Kinase, EGF Receptor enzyme inhibition (substrate: Poly(Glu:Tyr)); format: cell-based, Insect cells; conditions: Not Active = under 50% inhibition at 10 µM; for IC50 / Ki: insect cells
Cytochrome P450 2C19 = Cytochrome P450 2C19 (Homo sapiens, UniProt P33261); further: in other assays of this panel Not Active means under 50% inhibition at 10 µM
Cytochrome P450 2C19, sequence (P33261 whole entry): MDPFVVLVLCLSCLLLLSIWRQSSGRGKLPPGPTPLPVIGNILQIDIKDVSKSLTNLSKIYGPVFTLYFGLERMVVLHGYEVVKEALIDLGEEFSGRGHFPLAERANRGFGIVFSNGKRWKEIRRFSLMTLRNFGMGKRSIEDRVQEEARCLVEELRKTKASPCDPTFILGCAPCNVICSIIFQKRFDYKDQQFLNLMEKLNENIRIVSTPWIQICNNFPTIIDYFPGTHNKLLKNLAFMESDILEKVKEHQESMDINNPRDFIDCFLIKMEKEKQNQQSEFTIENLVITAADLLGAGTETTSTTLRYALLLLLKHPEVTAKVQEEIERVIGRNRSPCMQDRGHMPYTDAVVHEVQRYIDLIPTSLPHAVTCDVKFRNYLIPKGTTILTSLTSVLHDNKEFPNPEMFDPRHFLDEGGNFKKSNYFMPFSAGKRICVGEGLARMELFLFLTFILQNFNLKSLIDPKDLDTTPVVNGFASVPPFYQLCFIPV

| Molecule | IC50 [1] | Ki [1] | IC50 (Androgen receptor) | Ki (Androgen receptor) | IC50 [2] | Ki [2] | IC50 (Adenosine receptor A2a) | Ki (Adenosine receptor A2a) | IC50 (Interstitial collagenase) | Ki (Interstitial collagenase) | IC50 [3] | Ki [3] | pIC50 (Adenosine receptor A2a; read-out: IC50) | pKi (Adenosine receptor A2a; read-out: Ki) | pIC50 ([3]; read-out: IC50) | pIC50 (Cytochrome P450 2C19) | pIC50 ([1]; read-out: IC50) |
| --- | --- | --- | --- | --- | --- | --- | --- | --- | --- | --- | --- | --- | --- | --- | --- | --- | --- |
| GADOPENTETATE DIMEGLUMINE | Not Active | Not Active | Not Active | Not Active | Not Active | Not Active | Not Active | Not Active | Not Active | Not Active | Not Active | Not Active | – | – | – | – | – |
| Nc1ccc2c3c(cccc13)C(=O)NC2=O | Not Active | – | Not Active | – | Not Active | Not Active | Not Active | – | Not Active | – | Not Active | – | – | – | – | – | – |
| O=c1cnn([C@@H]2O[C@H](CO)[C@@H](O)[C@H]2O)c(=O)[nH]1 [6-AZAURIDINE] | Not Active | – | Not Active | – | Not Active | Not Active | Not Active | – | Not Active | – | Not Active | – | – | – | – | – | – |
| CCN(CC)CCOCCC1=CCC2CC1C2(C)C (configuration not stated) [MYRTECAINE] | Not Active | – | Not Active | – | Not Active | Not Active | Not Active | – | Not Active | – | Not Active | – | – | – | – | – | – |
| Oc1c(Cl)cc(Cl)c(Cl)c1Cc1c(O)c(Cl)cc(Cl)c1Cl [HEXACHLOROPHENE] | Not Active | – | – | – | Not Active | Not Active | – | – | Not Active | – | – | – | 5.79 | 6.04 | 6.13 | 5.91 | – |
| GRAMICIDIN | Not Active | Not Active | Not Active | Not Active | Not Active | Not Active | Not Active | Not Active | Not Active | Not Active | Not Active | Not Active | – | – | – | – | – |
| OC(CCCN1CCCCC1)(c1ccccc1)c1ccccc1 [DIPHENIDOL] | Not Active | – | Not Active | – | Not Active | Not Active | Not Active | – | Not Active | – | Not Active | – | – | – | – | – | – |
| Cc1c(OCC(F)(F)F)ccnc1C[S+]([O-])c1nc2ccccc2[nH]1 (configuration not stated) [LANSOPRAZOLE] | Not Active | – | – | – | Not Active | Not Active | Not Active | – | Not Active | – | Not Active | – | – | – | – | 6.47 | – |
| C[C@@H]1O[C@@H](O[C@@H]2C=C3CC[C@@H]4[C@H](CC[C@]5(C)[C@@H](c6ccc(=O)oc6)CC[C@]45O)[C@@]3(C)CC2)[C@H](O)[C@H](O)[C@H]1O [PROSCILLARIDIN] | Not Active | – | Not Active | – | Not Active | Not Active | Not Active | – | Not Active | – | Not Active | – | – | – | – | – | – |
| CN(C)[C@@H]1C(O)=C(C(N)=O)C(=O)[C@@]2(O)C(O)=C3C(=O)c4c(O)ccc(Cl)c4[C@@](C)(O)[C@H]3C[C@@H]12 [CHLORTETRACYCLINE] | Not Active | – | Not Active | – | Not Active | Not Active | Not Active | – | Not Active | – | Not Active | – | – | – | – | – | – |
| CC(C)c1cccc(C(C)C)c1O [PROPOFOL] | – | – | Not Active | – | Not Active | Not Active | Not Active | – | Not Active | – | Not Active | – | – | – | – | – | 5.12 |
| NYSTATIN | Not Active | Not Active | Not Active | Not Active | Not Active | Not Active | Not Active | Not Active | Not Active | Not Active | Not Active | Not Active | – | – | – | – | – |
| CC(=O)Oc1ccc(C(c2ccc(OC(C)=O)cc2)c2ccccn2)cc1 [BISACODYL] | Not Active | – | Not Active | – | Not Active | Not Active | Not Active | – | Not Active | – | Not Active | – | – | – | – | – | – |
| C[C@@H](CO)NC(=O)[C@@H]1C=C2c3cccc4[nH]cc(c34)C[C@H]2N(C)C1 [ERGONOVINE] | Not Active | – | Not Active | – | Not Active | Not Active | Not Active | – | Not Active | – | Not Active | – | – | – | – | – | – |
| CC(=O)O[C@H]1C(=O)[C@@]2(C)[C@H]([C@H](OC(=O)c3ccccc3)[C@]3(O)C[C@H](OC(=O)[C@H](O)[C@@H](NC(=O)c4ccccc4)c4ccccc4)C(C)=C1C3(C)C)[C@]1(OC(C)=O)CO[C@@H]1C[C@@H]2O [PACLITAXEL] | Not Active | – | Not Active | – | Not Active | Not Active | Not Active | – | Not Active | – | Not Active | – | – | – | – | – | – |
| CCC1(CCC(C)C)C(=O)NC(=O)NC1=O [AMOBARBITAL] | Not Active | – | Not Active | – | Not Active | Not Active | Not Active | – | Not Active | – | Not Active | – | – | – | – | – | – |
| GENTAMICIN | Not Active | Not Active | Not Active | Not Active | Not Active | Not Active | Not Active | Not Active | Not Active | Not Active | Not Active | Not Active | – | – | – | – | – |
| CC(C)NCC(O)COc1cccc2[nH]ccc12 (configuration not stated) [PINDOLOL] | Not Active | – | Not Active | – | Not Active | Not Active | Not Active | – | Not Active | – | Not Active | – | – | – | – | – | – |
| O=C(N/N=C/c1ccc([N+](=O)[O-])o1)c1cc([N+](=O)[O-])cc([N+](=O)[O-])c1O [NIFURSOL] | Not Active | – | – | – | Not Active | Not Active | Not Active | – | Not Active | – | Not Active | – | – | – | – | 5.30 | – |
| CC(C)NNC(=O)c1ccncc1 [IPRONIAZID] | Not Active | – | Not Active | – | Not Active | Not Active | Not Active | – | Not Active | – | Not Active | – | – | – | – | – | – |
| COc1ccc2c3c1O[C@H]1C[C@@H](O)C=C[C@@]31CCN(C)C2 [GALANTAMINE] | Not Active | – | Not Active | – | Not Active | Not Active | Not Active | – | Not Active | – | Not Active | – | – | – | – | – | – |
| C[n+]1ccc(-c2cc[n+](C)cc2)cc1.[Cl-].[Cl-] [PARAQUAT DICHLORIDE] | Not Active | – | Not Active | – | Not Active | Not Active | Not Active | – | Not Active | – | Not Active | – | – | – | – | – | – |
| CCCN(CCC)S(=O)(=O)c1ccc(C(=O)O)cc1 [PROBENECID] | Not Active | – | Not Active | – | Not Active | Not Active | Not Active | – | Not Active | – | Not Active | – | – | – | – | – | – |
